Experimental data reported in patent US11306124B2, “Agonist agents of CD47 inducing programmed cell death and their use in the treatments of diseases associated with defects in programmed cell death” (SORBONNE UNIVERSITE, priority 2016, dated 2022).
Read-outs that look alike come from different tables or passages of the source. Residues, ends and D or L forms follow the SMILES beside them.

Tests used:
HCT-116 cells = format: cell-based, human; conditions: 2 h; for Viable, Mean (%): human; for Early Apoptosis, Mean (%) / Late apoptosis, Mean (%): HCT-116 cells
Description: 2.2.2. Cell Death Analysis by Flow Cytometry
To detect possible apoptotic processes, cells were seeded in 35 mm dishes and cultured in media containing each tested cyclic peptide for 2 hours following procedure A or B.
Procedure B: Peptides were incubated for 2 hours on HCT-116 cells. Superkiller Trail (ALX-201-115C-010) was used as a positive pro-apoptotic control. Cells were analyzed by cytofluorometry using FITC Annexin V apoptosis detection kit with 7-AAD from BIOLEGEND (BLE640922).

[1] = system: MCF-7, HCT-116, BxPC3 and A549 cancer cells; assay: Cell viability and proliferation of tumor cells (cytotoxic assay and direct cell counting); format: cell-based, human; conditions: for viability in all cell strains: 2 hours, 10 to 50 μM peptide concentration; for efficiency in inducing cell death on cancer cell lines: MCF-7, HCT-116, BxPC3, A549
Description: The effects of several cyclic peptides of the invention on the proliferation of tumor cells were evaluated on 5 cell lines (MCF-7, human breast cancer cells; HCT-116, human colon cancer cells; BxPC3, human pancreas cancer cells and A549, human lung cancer cells) by cytotoxic assay and by counting directly the number of cells.
Those cyclic peptides were dissolved in DMSO at the following concentrations: 0, 5, 10, 25, 50 and 100 μM.
Culture media used for these assays are: EMEM=10% SVF for MCF-7 and Wi38; RPMI […] SVF for HCT-116 and BxPC3 and F-12K=10% SVF for A549.
500 cells were seeded in 96-well plates, incubated at 37° C. for 24 hours, and treated by the cyclic peptides at the different concentrations and controls for 2 h.

[2] = peptide concentration 12.5 (μM)

| Molecule | Viable, Mean (%) (HCT-116 cells; 12.5 μM) | Viable, Mean (%) (HCT-116 cells; 25 μM) | Viable, Mean (%) (HCT-116 cells; 50 μM) | viability in all cell strains [1] | also measured |
| --- | --- | --- | --- | --- | --- |
| CC(C)C[C@@H]1NC(=O)[C@@H]2CCCN2C(=O)[C@H]2CCCN2C(=O)[C@H](Cc2c[nH]c3ccccc23)NC(=O)[C@H](CCCCN)NC(=O)[C@H](C(C)C)NC(=O)[C@H](C(C)C)NC(=O)[C@H](Cc2ccccc2)NC(=O)[C@H](Cc2ccccc2)NC(=O)[C@H](C(C)C)NC(=O)[C@H](C(C)C)NC(=O)[C@H](CCCCN)NC(=O)[C@H](C(C)C)NC(=O)[C@H](CO)NC1=O [PKD10-FF, —F—F—V—V—K—W—p—P—L—S—V—K—V—V—] (HELM PEPTIDE1{F.F.V.V.K.W.[dP].P.L.S.V.K.V.V}$PEPTIDE1,PEPTIDE1,1:R1-14:R2$$$V2.0) | 25.225 | 30.445 | 31.97 |  |  |
| —S—R—F—Y—V—V—M—W—K—p—P—S—R—F—Y—V—V—M—W—K— (SRFYVVMWKPPSRFYVVMWK; HELM PEPTIDE1{S.R.F.Y.V.V.M.W.K.[dP].P.S.R.F.Y.V.V.M.W.K}$PEPTIDE1,PEPTIDE1,1:R1-20:R2$$$V2.0; SMILES CSCC[C@@H]1NC(=O)[C@H](C(C)C)NC(=O)[C@H](C(C)C)NC(=O)[C@H](Cc2ccc(O)cc2)NC(=O)[C@H](Cc2ccccc2)NC(=O)[C@H](CCCNC(=N)N)NC(=O)[C@H](CO)NC(=O)[C@@H]2CCCN2C(=O)[C@H]2CCCN2C(=O)[C@H](CCCCN)NC(=O)[C@H](Cc2c[nH]c3ccccc23)NC(=O)[C@H](CCSC)NC(=O)[C@H](C(C)C)NC(=O)[C@H](C(C)C)NC(=O)[C@H](Cc2ccc(O)cc2)NC(=O)[C@H](Cc2ccccc2)NC(=O)[C@H](CCCNC(=N)N)NC(=O)[C@H](CO)NC(=O)[C@H](CCCCN)NC(=O)[C@H](Cc2c[nH]c3ccccc23)NC1=O; listed as Homo sapiens) [PKTD16] |  |  |  | dose-dependent viability decrease |  |
| CSCC[C@@H]1NC(=O)[C@H](C(C)C)NC(=O)[C@H](C(C)C)NC(=O)[C@H](Cc2ccc(O)cc2)NC(=O)[C@H](Cc2ccccc2)NC(=O)[C@H](CCCNC(=N)N)NC(=O)[C@H](CC(N)=O)NC(=O)[C@H](C(C)C)NC(=O)[C@H](C(C)C)NC(=O)[C@H](CCCCN)NC(=O)[C@H](C(C)C)NC(=O)[C@H](CO)NC(=O)[C@H](CC(C)C)NC(=O)CNC(=O)[C@H](CO)NC(=O)[C@@H]2CCCN2C(=O)[C@H]2CCCN2C(=O)[C@H](CCC(N)=O)NC(=O)[C@H](CCCCN)NC(=O)[C@H](Cc2c[nH]c3ccccc23)NC1=O [PKTD12, —R—F—Y—V—V—M—W—K—Q—p—P—S—G—L—S—V—K—V—V—N—] (HELM PEPTIDE1{R.F.Y.V.V.M.W.K.Q.[dP].P.S.G.L.S.V.K.V.V.N}$PEPTIDE1,PEPTIDE1,1:R1-20:R2$$$V2.0) | 90.87 | 89.42 | 73.78 | dose-dependent viability decrease | Early Apoptosis, Mean (%) (HCT-116 cells; [2]): 5.78%; Late apoptosis, Mean (%) (HCT-116 cells; [2]): 3.11%; Early Apoptosis, Mean (%) (HCT-116 cells; peptide concentration 25 (μM)): 7.15%; Late apoptosis, Mean (%) (HCT-116 cells; peptide concentration 25 (μM)): 3.26%; Early Apoptosis, Mean (%) (HCT-116 cells; peptide concentration 50 (μM)): 19.16%; Late apoptosis, Mean (%) (HCT-116 cells; peptide concentration 50 (μM)): 6.80% |
| CSCC[C@@H]1NC(=O)[C@H](C(C)C)NC(=O)[C@H](C(C)C)NC(=O)[C@H](Cc2ccc(O)cc2)NC(=O)[C@H](Cc2ccccc2)NC(=O)[C@H](CCCNC(=N)N)N(C)C(=O)[C@H](CO)NC(=O)[C@H](CO)NC(=O)[C@H](CC(N)=O)NC(=O)[C@H](C(C)C)NC(=O)[C@H](C(C)C)NC(=O)[C@H](CCCCN)NC(=O)[C@H](C(C)C)NC(=O)[C@H](CO)NC(=O)[C@H](CC(C)C)NC(=O)CNC(=O)[C@H](CO)NC(=O)[C@@H]2CCCN2C(=O)[C@H]2CCCN2C(=O)[C@H](CCC(N)=O)NC(=O)[C@H](CCCCN)NC(=O)[C@H](Cc2c[nH]c3ccccc23)NC1=O (relative stereo) [PKTD11RNMe, —S—R*—F—Y—V—V—M—W—K—Q—p—P—S—G—L—S—V—K—V—V—N—S— R* = RNMe] | 88.71 | 86.38 | 67.03 |  |  |
| CSCC[C@@H]1NC(=O)[C@@H](C(C)C)NC(=O)[C@H](C(C)C)NC(=O)[C@H](Cc2ccc(O)cc2)NC(=O)[C@H](Cc2ccccc2)NC(=O)[C@H](CCCNC(=N)N)N(C)C(=O)[C@H](CO)NC(=O)[C@H](CO)NC(=O)[C@H](CC(N)=O)NC(=O)[C@H](C(C)C)NC(=O)[C@H](C(C)C)NC(=O)[C@H](CCCCN)NC(=O)[C@H](C(C)C)NC(=O)[C@H](CO)NC(=O)[C@H](CC(C)C)NC(=O)CNC(=O)[C@@H]2CCCN2C(=O)[C@H]2CCCN2C(=O)[C@H](CCCCN)NC(=O)[C@H](Cc2c[nH]c3ccccc23)NC1=O (relative stereo) [PKTD10-RNMe, —S—R*—F—Y—V—V—M—W—K—p—P—G—L—S—V—K—V—V—N—S— R* = RNMe] | 91.72 | 91.10 | 76.73 |  |  |
| —S—R—F—Y—V—V—M—W—K—Q—p—P—S—G—L—S—V—K—V—V—N—S— [PKTD11] |  |  |  | dose-dependent viability decrease | efficiency in inducing cell death on cancer cell lines [1]: efficient in inducing cell death |
| CC[C@H](C)[C@@H]1NC(=O)CNC(=O)[C@@H]2CCCN2C(=O)[C@H]2CCCN2C(=O)[C@H](CCCCN)NC(=O)[C@H](Cc2c[nH]c3ccccc23)NC(=O)[C@H](CCSC)NC(=O)[C@H](C(C)C)NC(=O)[C@H](C(C)C)NC(=O)[C@H](Cc2ccc(O)cc2)NC(=O)[C@H](Cc2ccccc2)NC(=O)[C@H](CCCNC(=N)N)NC(=O)[C@H](CO)NC(=O)[C@H](CO)NC(=O)[C@H](CCCCN)NC(=O)[C@H](C(C)C)NC(=O)[C@H](C(C)C)NC(=O)[C@H](CCCCN)NC(=O)[C@H](C(C)C)NC(=O)[C@H](CO)NC1=O [PKTD1, —S—R—F—Y—V—V—M—W—K—p—P—G—I—S—V—K—V—V—K—S—] (HELM PEPTIDE1{G.I.S.V.K.V.V.K.S.S.R.F.Y.V.V.M.W.K.[dP].P}$PEPTIDE1,PEPTIDE1,1:R1-20:R2$$$V2.0) | 76.44 | 63.51 | 37.56 |  |  |
| CSCC[C@@H]1NC(=O)[C@@H](C(C)C)NC(=O)[C@H](C(C)C)NC(=O)[C@H](Cc2ccc(O)cc2)NC(=O)[C@H](Cc2ccccc2)NC(=O)[C@H](CCCNC(=N)N)NC(=O)[C@H](CO)NC(=O)CNC(=O)[C@H](CC(N)=O)NC(=O)[C@H](C(C)C)NC(=O)[C@H](C(C)C)NC(=O)[C@H](CCCCN)NC(=O)[C@H](C(C)C)NC(=O)[C@H](CO)NC(=O)[C@H](CC(C)C)NC(=O)CNC(=O)[C@@H]2CCCN2C(=O)[C@H]2CCCN2C(=O)[C@H](CCCCN)NC(=O)[C@H](Cc2c[nH]c3ccccc23)NC1=O [PKTD18, —S—R—F—Y—V—V—M—W—K—p—P—G—L—S—V—K—V—V—N—G—] (HELM PEPTIDE1{S.R.F.Y.V.[dV].M.W.K.[dP].P.G.L.S.V.K.V.V.N.G}$PEPTIDE1,PEPTIDE1,1:R1-20:R2$$$V2.0) | 82.45 | 75.12 | 67.48 |  |  |
| CC[C@@H](C)[C@@H]1NC(=O)CNC(=O)[C@@H]2CCCN2C(=O)[C@H]2CCCN2C(=O)[C@H](CCCCN)NC(=O)[C@H](Cc2c[nH]c3ccccc23)NC(=O)[C@H](CCSC)NC(=O)[C@@H](C(C)C)NC(=O)[C@H](C(C)C)NC(=O)[C@H](Cc2ccc(O)cc2)NC(=O)[C@H](Cc2ccccc2)NC(=O)[C@H](CCCNC(=N)N)NC(=O)C(CC(N)=O)NC(=O)[C@H](C(C)C)NC(=O)[C@H](C(C)C)NC(=O)[C@H](CCCCN)NC(=O)[C@H](C(C)C)NC(=O)[C@H](CO)NC1=O (stereo partly drawn) [PKTD7, —R—F—Y—V—V—M—W—K—p—P—G—I—S—V—K—V—V—N—] (HELM PEPTIDE1{G.[CC[C@@H](C)[C@H](N[*:1])C(=O)[*:2]].S.V.K.V.V.[NC(=O)CC(N[*:1])C(=O)[*:2]].R.F.Y.V.[dV].M.W.K.[dP].P}$PEPTIDE1,PEPTIDE1,1:R1-18:R2$$$V2.0) |  |  |  | dose-dependent viability decrease | efficiency in inducing cell death on cancer cell lines [1]: efficient in inducing cell death |
| CCCC[C@@H]1NC(=O)[C@@H](C(C)C)NC(=O)[C@H](C(C)C)NC(=O)[C@H](Cc2ccc(O)cc2)NC(=O)[C@H](Cc2ccccc2)NC(=O)[C@H](CCCNC(=N)N)N(C)C(=O)[C@H](CO)NC(=O)[C@H](CO)NC(=O)[C@H](CC(N)=O)NC(=O)[C@H](C(C)C)NC(=O)[C@H](C(C)C)NC(=O)[C@H](CCCCN)NC(=O)[C@H](C(C)C)NC(=O)[C@H](CO)NC(=O)[C@H](CC(C)C)NC(=O)CNC(=O)[C@@H]2CCCN2C(=O)[C@H]2CCCN2C(=O)[C@H](CCCCN)NC(=O)[C@H](Cc2c[nH]c3ccccc23)NC1=O (relative stereo) [PKTD10-X-RNMe, —S—R*—F—Y—V—V—X—W—K—p—P—G—L—S—V—K—V—V—N—S— R* = RNMe and X = NLe] | 82.76 | 75.17 | 48.31 |  |  |
